According to patent publication US12514806B2, “Cosmetic composition comprising ceramides and sphingolipid” (Croda Korea Ltd, priority 2022, dated 2026):

Columns and labels:
Format in all cases: cell-based
aquaporin 3 = assay: Aquaporin 3 expression in 3D skin model by immunofluorescence; conditions: Experimental Example 4; creams including 0.01% and 0.1% of EOP on 3D skin model; compared to control; concentration-dependent; FIGS. 11-12
Experimental: (§1) To verify the difference in skin moisturizing according to a ceramide content ratio, each of the creams of Examples 1 to 16 was applied to 3D skin model (EPI-201) manufactured by MatTek, and then the expression of aquaporin 3 and filaggrin was examined.
(§2) Aquaporin 3 expression and filaggrin expression were analyzed by immunofluorescence. Specifically, after the 3D skin model was treated with each of the creams of Examples 1 to 16, the 3D skin model was incubated for 48 hours, and then each cream was washed out with PBS. The 3D skin model was put into a cassette and fixed with 10% formalin, and then made into a paraffin block through dehydration, transparency, penetration, and embedding processes. For deparaffinization, slides were prepared by sectioning to 3 μm, and then paraffin was melted in a dry oven at 60° C. for 30 minutes. […] After DAPI mounting, the slides were observed using a fluorescence microscope, and the results thereof are illustrated in FIGS. 1 to 4. […]
(§3) The moisturizing and barrier factors were analyzed by immunofluorescence in the same manner as in Experimental Example 1, and the results thereof are illustrated in FIGS. 11 and 12. […]
(§4) The moisturizing factors were analyzed by immunofluorescence in the same manner as in Experimental Example 1, and the results thereof are illustrated in FIGS. 15 to 18.

filaggrin = assay: Filaggrin expression in 3D skin model by immunofluorescence; conditions: Experimental Example 4; creams including 0.01% and 0.1% of EOP on 3D skin model; compared to control; concentration-dependent; FIGS. 11-12
Experimental: as §1, §2, §3, §4

ceramide = assay: Amount of ceramide in 3D skin model by immunofluorescence; conditions: Experimental Example 4; creams including 0.01% and 0.1% of EOP on 3D skin model; compared to control; FIGS. 11-12
Experimental: as §2, with “minutes. Then, the slides were treated with xylene for 15 minutes, 100% ethanol for 5 minutes, 95% ethanol for 5 minutes, and 70% ethanol for 5 minutes, and washed with tap water. Antigen retrieval was carried out by boiling for 10 minutes in citrate buffer in a cooker, followed by cooling in running water. After treatment with 0.5% Triton X-100 for 15 minutes, the slides were washed three times with PBS buffer for 5 minutes.” for “minutes.”
The moisturizing and barrier factors were analyzed by immunofluorescence in the same manner as in Experimental Example 1, and the results thereof are illustrated in FIGS. 11 and 12.

ceramide EOP
increased: amount of aquaporin 3 (aquaporin 3) | amount of filaggrin (filaggrin) | amount of ceramide (ceramide)
